Source: US20100266716A1, “Natural Photodynamic Agents and their use” (priority 2007, published 2010)

How the values were obtained:
Format in all cases: cell-based
Staphylococcus aureus [1] = assay: MBEC device biofilm photodynamic killing (Example 1); design: key to Killing of Staph aureus biofilm (eradication or growth): “−” = biofilm eradication at the mentioned conditions (concentration, exposure time and Light source); “+” = biofilm growth; conditions: for Killing of Staph aureus biofilm (eradication or growth): 16 Hours exposure
Text: (§1) Test microorganisms included Salmonella choleraesuis, Staphylococcus aureus, foodborne pathogens of humans. Test Compounds included Methylene blue, Hemoglobin (blood product), Hemin (blood product), Protoporphyrin (blood product), Annatto Extract (15% Norbixin), beet juice, Canthaxanthin (10%), Beta-carotene (1%), Purple carmine 50%, Carmine lake 60%, Black Carrot extract, Tomato lycopene (5%), sodium copper chlorophyllin, grape skin extract, paprika oleoresin, riboflavin, saffron, titanium dioxide, FD&C blue No1., turmeric oleoresin, FD&C blue No. 2, FD&C Green No. 3, FD&C Red No. 2 (Amaranth), FD&C Red No. 40, FD&C Yellow No. 5, and FD&C Yellow No. 6. Compounds were prepared as 1%, 0.1%, 0.01%, by weight, dissolved in water.
(§2) The light source was a full spectrum fluorescent light or LED light and the contact time was 1 and 16 hours. The study temperature was 37° C.
(§3) Approximately 10^6 organisms in 150 uL Cation Adjusted Mueller Hinton Broth (CAMHB) were placed in each of the wells of a 96 peg MBEC device. The lid of the 96 peg MBEC device was placed on the bottom plate containing organism. The device was placed on a shaker, set to 110 rpm, and incubated at 37° C. for 24 hours to produce biofilms.
(§4) The challenge plates were set up using a sterile 96-well microtitre plate using aseptic techniques in the following manner (one organism per plate, per light exposure time, per light source). Test solutions (200 uL) were placed into each well. The lid was transferred to the challenge plate and exposed to the various light sources for the prescribed exposure times (16 hours). Following the treatment, the pegs were transferred to the recovery media (“recovery plate”) then wrapped in tin foil and incubated at 37° C. for 18 to 24 hours. The recovery plate(s) was wrapped in tin foil, incubated at 37° C. for 24 hours and read visually and by a plate reader, set to an optical density measurement of 630 nm, to determine Minimum Biofilm Eradication Concentration (MBEC) by looking at growth or no growth.

E. coli 0157H7 = assay: Photocatalytic food dyes Log10 counts (Example 2)
Text: as §1, §2, §3, §4
(§5) The test was conducted as shown in Example 1, but using Hemin (blood product), Protoporphyrin (blood product), Annatto Extract, and Turmeric. The group of tests organism also included E. Coli 0157H7.

Staphylococcus aureus [2] = assay: Photocatalytic food dyes Log10 counts (Example 2); conditions: Staph. aureus
Text: as §1, §2, §3, §4, §5

Salmonella choleraesuis [3] = assay: Photocatalytic food dyes Log10 counts (Example 2); conditions: S. choleraesuis, Control 7.28
Text: as §1, §2, §3, §4, §5

Salmonella choleraesuis [4] = assay: MBEC device biofilm photodynamic killing (Example 1); design: key to Killing of Salmonella cholerasuis biofilm (eradication or growth): “−” = biofilm eradication at the mentioned conditions (concentration, exposure time and Light source); “+” = biofilm growth; conditions: for Killing of Salmonella cholerasuis biofilm (eradication or growth): 16 Hours exposure; for effective as photodynamic agent in killing biofilm organisms: Salmonella choleraesuis and Staphylococcus aureus biofilm, summary of Table 1
Text: as §1, §2, §3, §4

[5] = Fluorescent Light 16 hours, 0.01%, Control 6.51
[6] = Fluorescent Light 16 hours, 0.1%, Control 6.51
[7] = Fluorescent Light 16 hours, 1%, Control 6.51
[8] = LED Light 16 hours, 0.01%, Control 6.36
[9] = LED Light 16 hours, 0.1%, Control 6.36
[10] = LED Light 16 hours, 1%, Control 6.36
[11] = Fluorescent Light 16 hours, 0.01%, Control 6.48
[12] = Fluorescent Light 16 hours, 0.1%, Control 6.48
[13] = Fluorescent Light 16 hours, 1%, Control 6.48
[14] = LED Light 16 hours, 0.01%, Control 6.95
[15] = LED Light 16 hours, 0.1%, Control 6.95
[16] = LED Light 16 hours, 1%, Control 6.95
[17] = Fluorescent Light 16 hours, 0.01%
[18] = Fluorescent Light 16 hours, 0.1%

Compound | Killing of Staph aureus biofilm (eradication or growth) (Staphylococcus aureus [1]; Fluorescent Light, 0.01%) | Killing of Staph aureus biofilm (eradication or growth) (Staphylococcus aureus [1]; Fluorescent Light, 0.1%) | Killing of Staph aureus biofilm (eradication or growth) (Staphylococcus aureus [1]; Fluorescent Light, 1%) | Killing of Staph aureus biofilm (eradication or growth) (Staphylococcus aureus [1]; LED Light, 0.01%) | Killing of Staph aureus biofilm (eradication or growth) (Staphylococcus aureus [1]; LED Light, 0.1%) | Killing of Staph aureus biofilm (eradication or growth) (Staphylococcus aureus [1]; LED Light, 1%) | Average Log10 counts (E. coli 0157H7; [5]) | Average Log10 counts (E. coli 0157H7; [6]) | Average Log10 counts (E. coli 0157H7; [7]) | Average Log10 counts (E. coli 0157H7; [8]) | Average Log10 counts (E. coli 0157H7; [9]) | Average Log10 counts (E. coli 0157H7; [10]) | Average Log10 counts (Staphylococcus aureus [2]; [11]) | Average Log10 counts (Staphylococcus aureus [2]; [12]) | Killing of Salmonella cholerasuis biofilm (eradication or growth) (Salmonella choleraesuis [4]; Fluorescent Light, 0.01%) | Killing of Salmonella cholerasuis biofilm (eradication or growth) (Salmonella choleraesuis [4]; Fluorescent Light, 0.1%) | Killing of Salmonella cholerasuis biofilm (eradication or growth) (Salmonella choleraesuis [4]; Fluorescent Light, 1%) | Killing of Salmonella cholerasuis biofilm (eradication or growth) (Salmonella choleraesuis [4]; LED Light, 0.01%) | Killing of Salmonella cholerasuis biofilm (eradication or growth) (Salmonella choleraesuis [4]; LED Light, 0.1%) | Killing of Salmonella cholerasuis biofilm (eradication or growth) (Salmonella choleraesuis [4]; LED Light, 1%) | also measured
CN(C)c1ccc2nc3ccc(=[N+](C)C)cc-3sc2c1 [Methylene blue, reference compound] | − | − | − | − | − | − | 3.41 Log10 | 0.79 Log10 | 0.35 Log10 | 1.77 Log10 | 0.00 Log10 | 0.00 Log10 | 3.20 Log10 | 0.00 Log10 | − | − | − | − | − | − | Average Log10 counts (Staphylococcus aureus [2]; [13]): 0.00 Log10; Average Log10 counts (Staphylococcus aureus [2]; [14]): 5.71 Log10; Average Log10 counts (Staphylococcus aureus [2]; [15]): 5.40 Log10; Average Log10 counts (Staphylococcus aureus [2]; [16]): 4.84 Log10; Average Log10 counts (Salmonella choleraesuis [3]; [17]): 0.00 Log10; Average Log10 counts (Salmonella choleraesuis [3]; [18]): 0.00 Log10; Average Log10 counts (Salmonella choleraesuis [3]; Fluorescent Light 16 hours, 1%): 0.00 Log10; Average Log10 counts (Salmonella choleraesuis [3]; LED Light 16 hours, 0.01%): 2.27 Log10; Average Log10 counts (Salmonella choleraesuis [3]; LED Light 16 hours, 0.1%): 0.00 Log10; Average Log10 counts (Salmonella choleraesuis [3]; LED Light 16 hours, 1%): 3.20 Log10
CC1=C(/C=C/C(C)=C/C=C/C(C)=C/C=C/C=C(C)/C=C/C=C(C)/C=C/C2=C(C)CCCC2(C)C)C(C)(C)CCC1 [β-Carotene, Beta-carotene] | + | + | + | + | + | + |  |  |  |  |  |  |  |  | + | + | + | + | + | + | 
Hemoglobin: Hemoglobin (blood product) | + | + | + | + | + | + |  |  |  |  |  |  |  |  | − | − | − | + | + | + | effective as photodynamic agent in killing biofilm organisms (Salmonella choleraesuis [4]): Effective
Protoporphyrin | + | + | + | + | + | + | 0.44 Log10 | 0.57 Log10 | 0.00 Log10 | 4.04 Log10 | 3.48 Log10 | 3.60 Log10 | 0.00 Log10 | 0.00 Log10 | − | − | − | + | + | − | concentration at which useful against Staph A (Staphylococcus aureus [1]; fluorescent light): greater than 0.1%; Average Log10 counts (Staphylococcus aureus [2]; [13]): 0.00 Log10; Average Log10 counts (Staphylococcus aureus [2]; [14]): 1.29 Log10; Average Log10 counts (Staphylococcus aureus [2]; [15]): 0.50 Log10; Average Log10 counts (Staphylococcus aureus [2]; [16]): 3.10 Log10; Average Log10 counts (Salmonella choleraesuis [3]; [17]): 2.10 Log10; Average Log10 counts (Salmonella choleraesuis [3]; [18]): 2.33 Log10; Average Log10 counts (Salmonella choleraesuis [3]; Fluorescent Light 16 hours, 1%): 3.32 Log10; Average Log10 counts (Salmonella choleraesuis [3]; LED Light 16 hours, 0.01%): 3.40 Log10; Average Log10 counts (Salmonella choleraesuis [3]; LED Light 16 hours, 0.1%): 3.67 Log10; Average Log10 counts (Salmonella choleraesuis [3]; LED Light 16 hours, 1%): 2.92 Log10; concentration at which useful against Salmonella (Salmonella choleraesuis [4]; LED light): greater than 1%; effective as photodynamic agent in killing biofilm organisms (Salmonella choleraesuis [4]): Effective; concentration at which useful against Salmonella (Salmonella choleraesuis [4]; fluorescent light): greater than 0.01%
sodium copper chlorophyllin | + | + | + | + | + | + |  |  |  |  |  |  |  |  | + | + | + | + | + | + | 
